According to ChEMBL document CHEMBL4330155, “NaBr-Induced Production of Brominated Azaphilones and Related Tricyclic Polyketides by the Marine-Derived Fungus Penicillium janthinellum HK1-6” (J Nat Prod, 2019):
pIC50: −log10 of the molar value. Values after ≈ are worked out from the molar mass of the structure shown.

Tests used:
[1] = tested on: Staphylococcus aureus; experiment: Antibacterial activity against Staphylococcus aureus ATCC 43300 by XTT dye based assay; type: functional
[2] = tested on: Staphylococcus aureus; experiment: Antibacterial activity against Staphylococcus aureus ATCC 33591 by XTT dye based assay; type: functional
[3] = tested on: Staphylococcus aureus; experiment: Antibacterial activity against Staphylococcus aureus ATCC 25923 by XTT dye based assay; type: functional
[4] = tested on: Staphylococcus aureus; experiment: Antibacterial activity against Staphylococcus aureus ATCC 29213 by XTT dye based assay; type: functional
[5] = tested on: Enterococcus faecalis; experiment: microbe, parasite or virus in culture; type: functional; settings: ATCC 51299
Description: Antibacterial activity against Enterococcus faecalis ATCC 51299 by XTT dye based assay

[6] = tested on: Enterococcus faecium; experiment: Antibacterial activity against Enterococcus faecium ATCC 35667 by XTT dye based assay; type: functional
[7] = tested on: Escherichia coli; experiment: microbe, parasite or virus in culture; type: functional; settings: ATCC 25922
Description: Antibacterial activity against Escherichia coli ATCC 25922 by XTT dye based assay

[8] = tested on: SMMC-7721; experiment: Cytotoxicity again human SMMC7721 cells by MTT method; type: cell-based

## Cc1onc(-c2ccccc2)c1C(=O)N[C@@H]1C(=O)N2[C@@H]1SC(C)(C)[C@@H]2C(=O)[O-].[Na+]
[1]
  MIC: > 50 µg/mL
[2]
  MIC: > 50 µg/mL
[3]
  MIC: 0.2 µg/mL
[4]
  MIC: 0.39 µg/mL
[5]
  MIC: > 50 µg/mL
[6]
  MIC: > 50 µg/mL
[7]
  MIC: > 50 µg/mL

## CCCCCC[C@H](C)/C=C(\C)C(=O)O[C@@]1(C)C(=O)C=C2C=C(c3c(C)cccc3O)OC=C2C1=O
[8]
  pIC50: < 5.00

## CN[C@H](CC(C)C)C(=O)N[C@H]1C(=O)N[C@@H](CC(N)=O)C(=O)N[C@H]2C(=O)N[C@H]3C(=O)N[C@H](C(=O)N[C@H](C(=O)O)c4cc(O)cc(O)c4-c4cc3ccc4O)[C@H](O)c3ccc(c(Cl)c3)Oc3cc2cc(c3O[C@@H]2O[C@H](CO)[C@@H](O)[C@H](O)[C@H]2O[C@H]2C[C@](C)(N)[C@H](O)[C@H](C)O2)Oc2ccc(cc2Cl)[C@H]1O.Cl [VANCOMYCIN HYDROCHLORIDE]
[1]
  MIC: 0.78 µg/mL
[2]
  MIC: 1.56 µg/mL
[3]
  MIC: 0.78 µg/mL
[4]
  MIC: 0.78 µg/mL
[5]
  MIC: > 50 µg/mL
[6]
  MIC: 0.78 µg/mL
[7]
  MIC: > 50 µg/mL

## Cc1cccc(O)c1C1=CC2=C(Cl)C(=O)[C@@](C)(O)C(=O)C2=CO1
[8]
  pIC50: < 5.00

## CCCCCC[C@H](C)/C=C(\C)C(=O)O[C@@]1(C)C(=O)C2=COC(C3=C(C)CC(O)CC3=O)=CC2=C(Cl)C1=O (some centres not stated)
[8]
  pIC50: < 5.00

## CCCCCC[C@H](C)/C=C(\C)C(=O)O[C@@]1(C)C(=O)c2c(cc(O)c3c2C[C@H](O)C[C@]3(C)O)[C@](C)(O)C1=O
[1]
  MIC: 12.5 µg/mL (≈ 24.2 µM)
[2]
  MIC: 3.13 µg/mL (≈ 6.06 µM)
[3]
  MIC: > 50 µg/mL
[4]
  MIC: 12.5 µg/mL (≈ 24.2 µM)
[5]
  MIC: 12.5 µg/mL (≈ 24.2 µM)
[6]
  MIC: 25 µg/mL (≈ 48.4 µM)
[7]
  MIC: > 50 µg/mL

## CCCCCC[C@H](C)/C=C(\C)C(=O)O[C@@]1(C)C(=O)c2c(cc(O)c3c(C)cccc23)[C@](C)(O)C1=O
[1]
  MIC: > 50 µg/mL
[2]
  MIC: > 50 µg/mL
[3]
  MIC: > 50 µg/mL
[4]
  MIC: > 50 µg/mL
[5]
  MIC: > 50 µg/mL
[6]
  MIC: > 50 µg/mL
[7]
  MIC: > 50 µg/mL

## CCCCCC[C@H](C)/C=C(\C)C(=O)O
[1]
  MIC: 25 µg/mL (≈ 126 µM)
[2]
  MIC: 25 µg/mL (≈ 126 µM)
[3]
  MIC: > 50 µg/mL
[4]
  MIC: > 50 µg/mL
[5]
  MIC: > 50 µg/mL
[6]
  MIC: > 50 µg/mL
[7]
  MIC: > 50 µg/mL

## CCCCCC[C@H](C)/C=C(\C)C(=O)O[C@@]1(C)C(=O)C=C2C=C(C3=C(C)C[C@@H](O)CC3=O)OC=C2C1=O
[8]
  pIC50: < 5.00

## CCCCCC[C@H](C)/C=C(\C)C(=O)O[C@]1(C)C(=O)C2=COC(C3=C(C)C[C@@H](O)CC3=O)=CC2=C(Br)C1=O
[1]
  MIC: 50 µg/mL (≈ 86.9 µM)
[2]
  MIC: 12.5 µg/mL (≈ 21.7 µM)
[3]
  MIC: 12.5 µg/mL (≈ 21.7 µM)
[4]
  MIC: 25 µg/mL (≈ 43.4 µM)
[5]
  MIC: 25 µg/mL (≈ 43.4 µM)
[6]
  MIC: 25 µg/mL (≈ 43.4 µM)
[7]
  MIC: > 50 µg/mL
[8]
  pIC50: < 5.00

## CCCCCC[C@H](C)/C=C(\C)C(=O)O[C@@]1(C)C(=O)C2=COC(c3c(C)cccc3O)=CC2=C(Cl)C1=O
[8]
  pIC50: < 5.00

## Cc1cccc(O)c1C1=CC2=CC(=O)[C@](C)(O)C(=O)C2=CO1
[8]
  pIC50: < 5.00

## CCCCCC[C@H](C)/C=C(\C)C(=O)O[C@]1(C)C(=O)C2=COC(c3c(C)cccc3O)=CC2=C(Br)C1=O
[1]
  MIC: 12.5 µg/mL (≈ 22.4 µM)
[2]
  MIC: 3.13 µg/mL (≈ 5.61 µM)
[3]
  MIC: 6.25 µg/mL (≈ 11.2 µM)
[4]
  MIC: 12.5 µg/mL (≈ 22.4 µM)
[5]
  MIC: 3.13 µg/mL (≈ 5.61 µM)
[6]
  MIC: 12.5 µg/mL (≈ 22.4 µM)
[7]
  MIC: > 50 µg/mL
[8]
  pIC50: < 5.00
